{"source": "patent US20240115670A1", "about": "“FIBROBLAST ACTIVATION PROTEIN MODULATION TO ALTER IMMUNE CELL MIGRATION AND TUMOR INFILTRATION” (Georgetown University, priority 2021, published 2024)", "test_system": "NK92-GFP cells", "test": "NK92-GFP infiltration into cell clusters embedded in 3D matrix", "format": "cell-based, human", "settings": "10 uM Cpd60", "method": "3D clusters were generated, embedded and stained as previously described. In brief, clusters were generated by plating 1,000 cells per well into 96-well Nunclon Sphera low adhesion plates (Thermo Scientific, cat #174925) and incubated overnight at 37° C. The following day, 6 clusters were embedded into an ECM containing 2,000 NK cells and plated into one well of a Nunc Lab-Tek II 8-well chamber slide (ThermoScientific, cat #154534PK). The ECM mixture consisted of 20% growth factor reduced Matrigel (Corning, 10-12 mg/ml stock concentration, #354230) and 80% rat tail collagen type I at 3 mg/mL (gibco, A1048301). Cells were either imaged for the following 24 hours every 30 minutes using the Zeiss LSM800 scanning confocal microscope or allowed to incubate overnight at 37° C. After 24 hours, cells in matrix were fixed with 5.4% formalin for 1 hour, permeabilized with 0.5% Triton-X and blocked using goat serum. For invasion assays, NK-92-GFP cells were stained with anti-GFP (ThermoFisher, cat #A-11122). For the cell lysis assays clusters were stained using anti-cleaved caspase 3 (Cell Signaling, cat #9661). Hoechst 33342, phalloidin, and secondary antibodies labeled with Alexa Fluor 488 nm, 546 nm, 647 nm, or 680 nm (Invitrogen) were used.\n3D clusters were generated, embedded and stained as previously described (34, 35). In brief, clusters were generated by plating 1,000 cells per well into 96-well Nunclon Sphera low adhesion plates (Thermo Scientific, cat #174925) and incubated overnight at 37° C. The following day, 6 clusters were embedded into an ECM containing 2,000 NK cells were plated into one well of a Nunc Lab-Tek II 8-well chamber slide (ThermoScientific, cat #154534PK). To ensure equal distribution of NK cells in Matrigel, the NK cells were first suspended in the Matrigel stock, which was then aliquoted for individual cluster embedding. The ECM mixture consisted of 20% growth factor reduced Matrigel (Corning, 10-12 mg/ml stock concentration, #354230) and 80% rat tail collagen type I at 3 mg/mL (Gibco, A1048301). […]"}
{"smiles": "N#C[C@@H]1CC(F)(F)CN1C(=O)CNC(=O)c1ccnc2ccccc12", "note": "[Cpd60]", "values": [{"measurement": "NK92-GFP cell infiltration into PANC-1 clusters embedded in matrix", "setting": "24-hour coculture", "value": "significantly reduced"}, {"measurement": "NK92-GFP cell infiltration into PSC clusters embedded in matrix", "setting": "24-hour coculture", "value": "significantly reduced"}, {"measurement": "cluster size", "setting": "80% collagen/20% Matrigel", "value": "no effect"}]}
